In general, pEC50 refers to the negative decadic logarithm of the EC50, by convention in mol/L.

pEC50: −log10 of the molar value. Some results are limits rather than exact numbers.

The test has as its target T1, hFXR (Homo sapiens, UniProt Q96RI1).
T1 construct: expressed in transfected cells; host or cells: CV-1 cells
T1 sequence (Q96RI1 1-486): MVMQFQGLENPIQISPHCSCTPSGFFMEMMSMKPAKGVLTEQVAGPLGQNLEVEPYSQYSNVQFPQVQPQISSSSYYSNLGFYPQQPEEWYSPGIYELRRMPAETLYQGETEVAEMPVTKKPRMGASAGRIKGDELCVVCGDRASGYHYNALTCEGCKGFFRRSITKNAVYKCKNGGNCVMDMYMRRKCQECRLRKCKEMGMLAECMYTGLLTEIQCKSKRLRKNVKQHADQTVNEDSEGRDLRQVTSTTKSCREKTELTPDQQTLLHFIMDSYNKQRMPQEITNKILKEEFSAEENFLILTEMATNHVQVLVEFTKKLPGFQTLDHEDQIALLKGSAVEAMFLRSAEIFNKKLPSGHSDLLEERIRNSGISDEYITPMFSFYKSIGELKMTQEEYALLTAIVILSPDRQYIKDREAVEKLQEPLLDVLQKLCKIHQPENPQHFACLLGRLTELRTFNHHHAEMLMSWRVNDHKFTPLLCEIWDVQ
T1 sequence (P19793 1-462 partner): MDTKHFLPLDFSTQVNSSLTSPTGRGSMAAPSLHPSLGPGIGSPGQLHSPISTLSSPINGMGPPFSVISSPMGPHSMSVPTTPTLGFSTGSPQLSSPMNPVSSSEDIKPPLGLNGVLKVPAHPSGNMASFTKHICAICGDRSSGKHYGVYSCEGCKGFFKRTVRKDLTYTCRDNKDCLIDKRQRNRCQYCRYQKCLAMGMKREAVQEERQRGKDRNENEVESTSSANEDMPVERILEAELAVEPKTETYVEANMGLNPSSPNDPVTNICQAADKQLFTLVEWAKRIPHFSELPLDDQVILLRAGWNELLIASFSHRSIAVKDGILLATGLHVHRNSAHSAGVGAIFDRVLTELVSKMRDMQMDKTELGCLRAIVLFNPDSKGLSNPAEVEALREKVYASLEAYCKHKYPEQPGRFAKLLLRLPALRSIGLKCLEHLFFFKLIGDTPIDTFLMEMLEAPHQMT
Description: In Vitro FXR Assay (TK): TK-ECRE-luc reporter in transfected CV-1 cells. Conditions: 18 hrs, luminescence, maximum efficacy of <25% of the Fexarmine control classified as '+'. It is filed as cell-based. The procedure:
CV-1 cells were seeded at a density of 2,000,000 cells in a T175 flask with DMEM+10% charcoal double-stripped FBS and incubated at 37° C. in 5% CO2 for 18 h (O/N).
After 18 h of incubation, the medium in the T175 flask was changed with fresh DMEM+10% charcoal super-stripped serum. In a polypropylene tube, 2500 μL OptiMEM (Life Technologies, Cat #31985-062) was combined with expression plasmids for hFXR, hRXR, TK-ECRE-luc and pCMX-YFP. The tube was then briefly vortexed and incubated at room temperature for 5 minutes. Transfection reagent (X-tremeGENE HP from Roche, Cat #06 366 236 001) was added to the OptiMEM/plasmid mixture vortexed and incubated at room temperature for 20 minutes. Following incubation, the transfection reagent/DNA mixture complex was added to cells in the T175 flask and the cells were incubated at 37° C. in 5% CO2 for 18 h (O/N).
Compounds were serially diluted in DMSO and added to transfected CV-1 cells. The cells were then incubated for 18 hrs. The next day cells were lysed and examined for luminescence.

As to `COc1ccc([C@H]2CC[C@H](CN(c3cccc(-c4cnn(C(C)C)c4)c3)C(=O)[C@H]3CC[C@H](CC(=O)O)CC3)CC2)cc1C` [Compound 20.14, 2-(trans-4-((3-(1-Isopropyl-1H-pyrazol-4-yl)phenyl)((trans-4-(4-methoxy-3-methylphenyl)cyclohexyl)methyl)carbamoyl)cyclohexyl)acetic acid], the pEC50 is no less than 6.60.
With `COc1ccc(C23CCC(CN(c4cccc(-c5cnn(C6CC6)c5)c4)C(=O)[C@H]4CC[C@H](NC(=O)CO)CC4)(CC2)CC3)cc1C` [Compound 26.09, trans-N-(3-(1-Cyclopropyl-1H-pyrazol-4-yl)phenyl)-4-(2-hydroxyacetamido)-N-((4-(4-methoxy-3-methylphenyl)bicyclo[2.2.2]octan-1-yl)methyl)cyclohexanecarboxamide] the figure was no less than 6.60; with `COc1ccc([C@H]2CC[C@H](CN(c3cccc(-c4cnn(C(C)C)c4)c3)C(=O)[C@H]3CC[C@H](OCC(=O)O)CC3)CC2)cc1C` [Compound 12, 2-((trans-4-((3-(1-Isopropyl-1H-pyrazol-4-yl)phenyl)((trans-4-(4-methoxy-3-methylphenyl)cyclohexyl)methyl)carbamoyl)cyclohexyl)oxy)acetic acid], no less than 6.60.
With `COc1ncc(-c2cccc(N(C[C@H]3CC[C@H](c4ccc(OC)c(C)c4)CC3)C(=O)[C@H]3CC[C@H](C(=O)OC)CC3)c2)s1` [Compound 18.07, trans-Methyl 4-(((trans-4-(4-methoxy-3-methylphenyl)cyclohexyl)methyl)(3-(2-methoxythiazol-5-yl)phenyl)carbamoyl)cyclohexanecarboxylate] the figure was no less than 6.60.
As to `COc1ccc([C@H]2CC[C@H](CN(c3cccc(-c4cnc(C5CC5)s4)c3)C(=O)[C@H]3CC[C@H](C(=O)OC)CC3)CC2)cc1C` [Compound 18.06, trans-Methyl 4-((3-(2-cyclopropylthiazol-5-yl)phenyl)((trans-4-(4-methoxy-3-methylphenyl)cyclohexyl)methyl)carbamoyl) cyclohexanecarboxylate], the pEC50 was no less than 6.60.
The result for `COc1ccc([C@H]2CC[C@H](CN(c3cccc(-c4cnn(C5CC5)c4)c3)C(=O)[C@H]3CC[C@H](NC(=O)COCCCO)CC3)CC2)cc1C` [Compound 32, trans-N-(3-(1-Cyclopropyl-1H-pyrazol-4-yl)phenyl)-4-(2-(3-hydroxypropoxy)acetamido)-N-((trans-4-(4-methoxy-3-methylphenyl)cyclohexyl)methyl)cyclohexanecarboxamide] reads no less than 6.60; that for `COc1ccc([C@H]2CC[C@H](CN(c3cccc(-c4cnc(C5CC5)s4)c3)C(=O)[C@H]3CC[C@H](C(=O)O)CC3)CC2)nc1C#N` [Compound 17.12, trans-4-(((trans-4-(6-Cyano-5-methoxypyridin-2-yl)cyclohexyl)methyl)(3-(2-cyclopropylthiazol-5-yl)phenyl)carbamoyl) cyclohexanecarboxylic acid], no less than 6.60; that for `CNC(=O)O[C@H]1CC[C@H](C(=O)N(C[C@H]2CC[C@H](c3ccc(OC)c(C)c3)CC2)c2cc(-c3cnc(C(C)C)s3)ccn2)CC1` [Compound 5.02, trans-4-((4-(2-Isopropylthiazol-5-yl)pyridin-2-yl)((trans-4-(4-methoxy-3-methylphenyl)cyclohexyl)methyl)carbamoyl)cyclohexyl methylcarbamate], no less than 6.60.
With `COc1ncc(-c2cccc(N(C[C@H]3CC[C@H](c4ccc(OC)c(C)c4)CC3)C(=O)[C@H]3CC[C@H](CO)CC3)c2)s1` [Compound 15.01, trans-4-(Hydroxymethyl)-N-((trans-4-(4-methoxy-3-methylphenyl)cyclohexyl)methyl)-N-(3-(2-methoxythiazol-5-yl)phenyl)cyclohexanecarboxamide] the figure was no less than 6.60.
In the case of `COc1ccc([C@H]2CC[C@H](CN(c3cccc(-c4cnn(C5CC5)c4)c3)C(=O)[C@H]3CC[C@H](OC(=O)N4CCC4)CC3)CC2)cc1C` [Compound 7.31, trans-4-((3-(1-Cyclopropyl-1H-pyrazol-4-yl)phenyl)((trans-4-(4-methoxy-3-methylphenyl)cyclohexyl)methyl)carbamoyl)cyclohexyl azetidine-1-carboxylate], the negative logarithm of the EC50 (pEC50) was no less than 6.60.
With `CCCOC1CN(C(=O)O[C@H]2CC[C@H](C(=O)N(C[C@H]3CC[C@H](c4ccc(OC)c(C)n4)CC3)c3cc(-c4coc(C5CC5)n4)ccn3)CC2)C1` [Compound 7.104, trans-4-((4-(2-Cyclopropyloxazol-4-yl)pyridine-2-yl)((trans-4-(5-methoxy-6-methylpyridin-2-yl)cyclohexyl)methyl)carbamoyl)cyclohexyl 3-propoxyazetidine-1-carboxylate] the figure was no less than 6.60; with `COc1ccc([C@H]2CC[C@H](CN(c3cc(-c4coc(C5CC5)n4)ccn3)C(=O)[C@H]3CC[C@H](OC(=O)N4CCN(C(C)C)CC4)CC3)CC2)nc1C` [Compound 6.82, trans-4-((4-(2-Cyclopropyloxazol-4-yl)pyridine-2-yl)((trans-4-(5-methoxy-6-methylpyridin-2-yl)cyclohexyl)methyl)carbamoyl)cyclohexyl 4-isopropylpiperazine-1-carboxylate], no less than 6.60; with `COc1ncc(-c2cccc(N(C[C@H]3CC[C@H](c4ccc(OC)c(C)c4)CC3)C(=O)[C@H]3CC[C@H](NC(=O)OC(C)(C)C)CC3)c2)s1` [Compound 25.01, tert-Butyl (trans-4-(((trans-4-(4-methoxy-3-methylphenyl)cyclohexyl)methyl)(3-(2-methoxythiazol-5-yl)phenyl)carbamoyl)cyclohexyl)carbamate], 6.00 to 6.60.
With `COc1ccc(C23CCC(CN(c4cccc(-c5coc(C6CC6)n5)c4)C(=O)[C@H]4CC[C@H](OC(=O)NCCO)CC4)(CC2)CC3)cc1C` [Compound 6.45, 4-((3-(2-Cyclopropyloxazol-4-yl)phenyl) ((4-(4-methoxy-3-methylphenyl)bicyclo [2.2.2]octan-1-yl)methyl)carbamoyl) cyclohexyl trans-(2-hydroxyethyl) carbamate] the figure was no less than 6.60.
With `CNC(=O)O[C@H]1CC[C@H](C(=O)N(C[C@H]2CC[C@H](c3ccc(OC)c(C)n3)CC2)c2cccc(-c3cnn(C4CC4)c3)c2)CC1` [Compound 3.02, trans-4-((3-(1-Cyclopropyl-1H-pyrazol-4-yl)phenyl)((trans-4-(5-methoxy-6-methylpyridin-2-yl)cyclohexyl)methyl)carbamoyl)cyclohexyl methylcarbamate] the figure was no less than 6.60; with `COc1ccc([C@H]2CC[C@H](CN(c3cccc(-c4cnn(C(C)C)c4)c3)C(=O)[C@H]3CC[C@H](OC(=O)NCCCO)CC3)CC2)nc1C` [Compound 6.16, trans-4-((3-(1-Isopropyl-1H-pyrazol-4-yl)phenyl)((trans-4-(5-methoxy-6-methylpyridin-2-yl)cyclohexyl)methyl)carbamoyl)cyclohexyl (3-hydroxypropyl)carbamate], no less than 6.60.
`COc1ccc([C@H]2CC[C@H](CN(c3cc(-c4coc(C5CC5)n4)ccn3)C(=O)[C@H]3CC[C@H](OC(=O)N4CC(O)C4)CC3)CC2)nc1C` [Compound 7, trans-4-((4-(2-Cyclopropyloxazol-4-yl)pyridine-2-yl)((trans-4-(5-methoxy-6-methylpyridin-2-yl)cyclohexyl)methyl)carbamoyl)cyclohexyl 3-hydroxyazetidine-1-carboxylate] had a negative logarithm of the EC50 (pEC50) of no less than 6.60.
Take `COc1ccc([C@H]2CC[C@H](CN(c3cccc(-c4cnn(C5CC5)c4)c3)C(=O)[C@H]3CC[C@H](OC(=O)N4CC(CC(=O)O)C4)CC3)CC2)cc1C` [Compound 7.42, 2-(1-(((trans-4-((3-(1-Cyclopropyl-1H-pyrazol-4-yl)phenyl)((trans-4-(4-methoxy-3-methylphenyl)cyclohexyl)methyl)carbamoyl)cyclohexyl)oxy)carbonyl)azetidin-3-yl)acetic acid]: the pEC50 was no less than 6.60.

The values above are taken from patent US20220089575A1, “FARNESOID X RECEPTOR AGONISTS AND USES THEREOF” (Metacrine, Inc., priority 2017, published 2022).
